pEC50, pIC50: −log10 of the molar value.
Assays:
[1] = Anti-platelet activity in rabbit platelet-rich plasma assessed as inhibition of ADP-induced platelet aggregation at 100 uM incubated for 5 mins at 37 degC by aggregometry; type: functional; conditions: Oryctolagus cuniculus
[2] = Anti-platelet activity in rabbit platelet-rich plasma assessed as inhibition of ADP-induced platelet aggregation at 12.5 uM incubated for 5 mins at 37 degC by aggregometry; type: functional; conditions: Oryctolagus cuniculus
[3] = Cytoprotective activity against H2O2-induced cytotoxicity in human EAhy926 cells at 12.5 uM pre-incubated for 24 hrs before H2O2 challenge for 12 hrs by MTT assay; type: functional, EA.hy 926
[4] = Cytoprotective activity against H2O2-induced cytotoxicity in human EAhy926 cells at 50 uM pre-incubated for 24 hrs before H2O2 challenge for 12 hrs by MTT assay; type: functional, EA.hy 926
[5] = Anti-platelet activity in rabbit platelet-rich plasma assessed as inhibition of ADP-induced platelet aggregation at 25 uM incubated for 5 mins at 37 degC by aggregometry; type: functional; conditions: Oryctolagus cuniculus
[6] = Anti-platelet activity in rabbit platelet-rich plasma assessed as inhibition of ADP-induced platelet aggregation incubated for 5 mins at 37 degC by aggregometry; type: functional; conditions: Oryctolagus cuniculus
[7] = Cytoprotective activity against H2O2-induced cytotoxicity in human EAhy926 cells pre-incubated for 24 hrs before H2O2 challenge for 12 hrs by MTT assay; type: functional, cell-based; conditions: EA.hy 926
[8] = Cytoprotective activity against H2O2-induced cytotoxicity in human EAhy926 cells at 25 uM pre-incubated for 24 hrs before H2O2 challenge for 12 hrs by MTT assay; type: functional, EA.hy 926
[9] = Cytoprotective activity against H2O2-induced cytotoxicity in human EAhy926 cells at 100 uM pre-incubated for 24 hrs before H2O2 challenge for 12 hrs by MTT assay; type: functional, EA.hy 926
[10] = Anti-platelet activity in rabbit platelet-rich plasma assessed as inhibition of ADP-induced platelet aggregation at 50 uM incubated for 5 mins at 37 degC by aggregometry; type: functional; conditions: Oryctolagus cuniculus

Compound	pIC50 [6]	inhibition at 100 µM [1]	inhibition at 12.5 µM [2]	Activity [3]	Activity [4]	inhibition at 25 µM [5]	pEC50 [7]	Activity [8]	Activity [9]	inhibition at 50 µM [10]
CCOC(=O)/C=C/c1ccc(O)c(OC)c1 [ETHYL FERULATE]	3.71	26.5%	4%			11.5%				17.9%
CCOC(=O)/C=C/c1ccc(O)cc1 [ETHYL P-COUMARATE]	3.88	37.9%	5.8%			16.4%				25.5%
O=C(O)/C=C/c1ccc(O)c(O)c1 [CAFFEIC ACID]				16.7%	149.5%		4.90	108.5%	155.6%	
Cc1nc(C)c(C)nc1C [LIGUSTRAZINE]	3.58	19.6%	3.4%	11.4%	22.1%	8.6%	4.08	13.6%	40.9%	15.3%
O=C(O)/C=C/c1ccc(O)cc1 [COUMARIC ACID]	4.13	54.5%	17.2%			29.9%				53.2%
CCOC(=O)/C=C/c1ccc(O)c(O)c1 [ETHYL CAFFEATE]				80.4%	134.8%		4.94	88.4%	146.9%	
Cc1nc(C)c(C(=O)Oc2ccc(/C=C/C(=O)O)cc2)nc1C	4.42	25.3%	64.3%	34.2%	74.1%	53.3%	4.42	46.6%	93.2%	41.7%
O=C(O)CCCCC1CCSS1 (stereo not drawn) [LIPOIC ACID, ALPHA]				30.5%	48.7%		4.17	-12.3%	58.1%	
Cc1nc(C)c(C(=O)Oc2ccccc2/C=C/C(=O)O)nc1C	5.02	17.2%	32.9%	45.7%	64.9%	54.8%	4.44	61.8%	80.1%	53.8%
COC(=O)[C@H](c1ccccc1Cl)N1CCc2sccc2C1 [CLOPIDOGREL]	5.12	94.5%	86.9%			77.6%				92.3%
CCOC(=O)/C=C/c1cc(OC)c(O)c(OC)c1				4.9%	32%		4.17	24.9%	69.1%	
Cc1nc(C)c(C(=O)Oc2cccc(/C=C/C(=O)O)c2)nc1C	4.58	8.2%	73.4%	61.6%	75.3%	38.5%	4.62	64.3%	103%	28%
Cc1nc(C)c(C(=O)Oc2ccc(Cl)cc2/C=C/C(=O)O)nc1C	4.24	74.5%	30%	6.9%	23.7%	38.1%	4.02	26%	52.2%	37%
COc1ccc(OC(=O)c2nc(C)c(C)nc2C)c(/C=C/C(=O)O)c1	4.31	59.8%	43.4%	21.7%	62.9%	46.5%	4.31	45%	79.2%	48.8%
O=C(O)/C=C/c1ccc(Cn2ccnc2)cc1 [OZAGREL]	3.84	36.8%	6.4%			4.8%				25%
COc1ccc(/C=C/C(=O)O)cc1O [ISOFERULIC ACID]				34.9%	62.9%		4.53	36.8%	81.9%	
COc1ccc(/C=C/C(=O)O)c(OC(=O)c2nc(C)c(C)nc2C)c1	3.87	40.9%	16.5%	39.7%	31.6%	35.1%	3.94	-52.1%	18%	34.1%
O=C(O)/C=C/c1ccccc1O [O-COUMARIC ACID]	3.94	42.9%	10.8%			21.4%				30.5%

Further lines, with some results ahead:

pIC50 [6]	Compound	inhibition at 100 µM [1]	inhibition at 12.5 µM [2]	Activity [3]	Activity [4]	inhibition at 25 µM [5]	pEC50 [7]	Activity [8]	Activity [9]	inhibition at 50 µM [10]
4.17	CCOC(=O)/C=C/c1cc(Cl)ccc1OC(=O)c1nc(C)c(C)nc1C	61.7%	26.3%	64.9%	33.7%	36.9%	4.44	62.5%	11%	44.4%
3.96	CCOC(=O)/C=C/c1ccccc1OC(=O)c1nc(C)c(C)nc1C	42.4%	11.8%	9.6%	36.9%	16.6%	3.96	17.8%	40.9%	39%
3.71	CCOC(=O)/C=C/c1cc(OC)ccc1OC(=O)c1nc(C)c(C)nc1C	60.7%	70.5%	15.9%	27.8%	73.9%	3.98	23.4%	46.2%	72.9%
3.84	CCOC(=O)/C=C/c1ccc(OC)c(OC(=O)c2nc(C)c(C)nc2C)c1	39.7%	22.3%	26.4%	89%	20.6%	4.52	60.1%	117%	32.2%
4.23	CCOC(=O)/C=C/c1ccc(OC(=O)c2nc(C)c(C)nc2C)c(OC)c1	64.4%	31%	52.4%	69.7%	37.2%	4.41	53.3%	71.6%	49.9%
4.55	CCOC(=O)/C=C/c1ccc(OC)cc1OC(=O)c1nc(C)c(C)nc1C	47%	84.2%	-57.6%	20.7%	32.6%	3.86	16.9%	39.9%	18.7%
4.43	CCOC(=O)/C=C/c1cc(OC)c(OC(=O)c2nc(C)c(C)nc2C)c(OC)c1	59.5%	44%	96.6%	-13.6%	47.2%	4.67	20.9%	-47%	55.9%
4.45	CCOC(=O)/C=C/c1cccc(OC(=O)c2nc(C)c(C)nc2C)c1	69.4%	25.1%	27.9%	39.5%	62.2%	4.03	34.2%	47%	59.6%
4.07	Cc1nc(C)c(C(=O)Oc2ccc(/C=C/C(=O)O)cc2O)nc1C	53.6%	32.1%	92.8%	284.8%	25%	5.66	271.1%	601.4%	44.5%
4.61	CCOC(=O)/C=C/c1ccc(OC(=O)c2nc(C)c(C)nc2C)cc1	20.5%	68%	42.7%	62.6%	39.1%	4.46	58.8%	96.1%	32.2%
4.38	COc1ccc(/C=C/C(=O)O)cc1OC(=O)c1nc(C)c(C)nc1C	75.2%	21.6%	41.3%	159.6%	53.5%	5.06	128.1%	216.3%	59.8%
4.08	COc1cc(/C=C/C(=O)O)cc(OC)c1OC(=O)c1nc(C)c(C)nc1C	52.1%	12%	5.7%	96.6%	17.4%	4.46	24%	163%	51.2%

From ChEMBL document CHEMBL3580595, “Design, synthesis and biological evaluation of novel trimethylpyrazine-2-carbonyloxy-cinnamic acids as potent cardiovascular agents” (Medchemcomm, 2014)
